# Test results from US10751353B2, “Compositions and methods for treating an aggregation disease or disorder” (Seelos Therapeutics, Inc., priority 2013, dated 2020).
# Several values for one entry are separate records, joined by “and”; a condition that tells them apart may be missing. Equal values may be shown once. Read-outs that look alike come from different tables or passages of the source.
# How the values were obtained:
# [1] = rabbits; 500 mg intravenously; cited from earlier work
# Dog = conditions: cited from earlier work; for LD50: Dog
# [2] = cited from earlier work
# [3] = Preclinical PK study: plasma and muscle concentrations of trehalose after IV bolus and oral gavage; type: in vivo, male Sprague-Dawley (SD) rats
# Protocol: The plasma and muscle concentrations of trehalose in male Sprague-Dawley (SD) rats was determined after intravenous bolus (IV) and oral gavage (PO) administration.
# The study included 42 SD rats (male, 250 to 350 grams in weight, the Shanghai SLAC Laboratory Animal Co. Ltd.). Animals were administered with a volume of 5 ml/kg trehalose formulation (trehalose dihydrate in sterilized water at 200 mg/mL) to achieve a nominal dose of 1 gr/kg, intravenously or orally.
# Blood samples were collected after each dose administration and processed for plasma. Muscle samples (hind leg muscle) were collected and homogenized. The concentrations of trehalose in plasma and muscle homogenate samples were analyzed by qualified bioanalytical LC/MS/MS methods.
# Plasma concentration data of trehalose was subjected to a non compartmental pharmacokinetic analysis using WinNonlin software program (version 6.3, Pharsight, Mountain View, Calif.). Zero-time intercept concentration (C0), volume of distribution (Vdss), Clearance (Cl) peak plasma concentrations (Cmax) and the corresponding peak times (Tmax), terminal half-life (T½), mean residence time (MRT) from time zero to the last time point (MRT0-last), MRT from time zero to infinity (MRT0-inf), the area under the plasma concentration-time curve (AUC) from time zero to the last time point (AUC0-last) and AUC from time zero extrapolated to infinity (AUC0-inf) were calculated using the linear/log trapezoidal rule. Nominal sampling times were used to calculate all pharmacokinetic parameters since there was not any deviation larger than 5% between the actual and nominal sampling times.
# The values of muscle to plasma concentration and AUC ratio (M/P ratio) were both calculated.
# [4] = cited from earlier work; remark: listed apart in the source
# Rat = conditions: cited from earlier work
# Mouse = conditions: cited from earlier work; for LD50: Mouse
# mutant PABPN1 proteins = conditions: OPMD cell models; cited from earlier work
# OPMD mouse model = conditions: cited from earlier work
# [5] = male, Sprague-Dawley, rat, in vivo, iv, 1000 mg/kg
# [6] = male, Sprague-Dawley, rat, in vivo, po, 1000 mg/kg
smiles,measurement,setting,value
OC[C@H]1O[C@H](O[C@H]2O[C@H](CO)[C@@H](O)[C@H](O)[C@H]2O)[C@H](O)[C@@H](O)[C@@H]1O [trehalose],time to clearance from the plasma,[1],≤ 60 min
same,trehalose detected in the urine,[1],none was detected
same,LD50,Dog; Intravenous,>1000 mg/kg bw
same,LD50,Dog; Oral,>5000 mg/kg bw
same,signs of toxicity and deaths,"Dog; dogs, oral and intravenous administration",no deaths occurred
same,share of ingested trehalose absorbed into the blood stream,[2]; oral ingestion,Less than 0.5%
same,share of trehalose not absorbed into the blood stream,[2]; oral,Over 99.5%
same,tolerability at the given dosage,"[3]; 1000 mg/kg IV or PO, male SD rats",well tolerated
same,bioavailability,"[3]; male, Sprague-Dawley, rat, in vivo, 1000 mg/kg",0.601%
same,AUC(0-inf),[3]; [5],781 µg·h/mL
same,CI (total clearance),[3]; [5],17.2 mL/min/kg
same,Cmax,[3]; [5],3730 ng/mL and 3730 ng/g
same,Vd,[3]; [5],0.685 L/kg
same,Vdss,[3]; [5],0.685 L/kg
same,clearance,[3]; [5],17.2 mL/min/kg
same,total clearance as share of rat liver blood flow (=55 mL/min/kg),[3]; [5],approximately 31.3%
same,AUC(0-t),"[3]; male, Sprague-Dawley, rat, in vivo, iv, 1000 mg/kg, AUC0-last",778 µg·h/mL
same,Kp,"[3]; male, Sprague-Dawley, rat, in vivo, iv, 1000 mg/kg, AUC ratio = Muscle AUC0-inf/Plasma AUC0-inf",0.234
same,Kp,"[3]; male, Sprague-Dawley, rat, in vivo, iv, 1000 mg/kg, mean ratios of muscle trehalose concentration to plasma concentration",2.88 to 3.76
same,AUC(0-t),"[3]; male, Sprague-Dawley, rat, in vivo, iv, 1000 mg/kg, muscle exposure AUC0-last (48 hr)",107 µg·h/mL
same,AUC0-inf/AUC0-last,[3]; [6],108%
same,AUC0-last,[3]; [6],4.52 µg·h/mL
same,AUC(0-inf),[3]; [6],4.87 µg·h/mL
same,Cmax,[3]; [6],4280 ng/mL
same,T1/2,[3]; [6],0.740 h
same,AUC(0-t),"[3]; male, Sprague-Dawley, rat, in vivo, po, 1000 mg/kg, AUC0-last",4.52 µg·h/mL
same,MRT inf,"[3]; male, Sprague-Dawley, rat, in vivo, po, 1000 mg/kg, MRT0-inf",1.26 h
same,MRT last,"[3]; male, Sprague-Dawley, rat, in vivo, po, 1000 mg/kg, MRT0-last",1.04 h
same,half-life,"[3]; male, Sprague-Dawley, rat, in vivo, po, 1000 mg/kg, T1/2",0.74 h
same,cellular uptake and retention after rapid intravenous administration,"[3]; rat, in vivo, iv",48 to 72 h
same,AUC0-last,"[3]; rat, in vivo, iv, 1000 mg/kg",107000 ng·h/g
same,AUC(0-inf),"[3]; rat, in vivo, iv, 1000 mg/kg",183000 ng·h/g
same,muscle samples of oral group,"[3]; rat, in vivo, po, 1000 mg/kg",below LLOQ
same,"plasma and muscle concentrations of trehalose, formulation administered orally","[3]; rat, in vivo, po, 1000 mg/kg",undetectable
same,safety in healthy volunteers,"[4]; oral doses 10 to 60 gr, apart from mild abdominal symptoms",no other safety issues were reported
same,oral amount that causes diarrhea and bloating,[4]; oral,40-50 gram per day
same,"oral amount that frequently causes diarrhea, bloating and discomfort","[4]; oral, humans",higher than 50 g a day
same,LD50,"Rat; Rat, Intravenous",>1000 mg/kg bw
same,signs of toxicity and deaths,"Rat; rats, oral and intravenous administration",no deaths occurred
same,LD50,Mouse; Intravenous,>1000 mg/kg bw
same,LD50,Mouse; Oral,>5000 mg/kg bw
same,signs of toxicity and deaths,"Mouse; mice, oral and intravenous administration",no deaths occurred
same,aggregation and toxicity of mutant PABPN1 proteins,mutant PABPN1 proteins,effective in reducing
same,aggregate formation,OPMD mouse model,decreased aggregate formation
same,muscle weakness,OPMD mouse model,attenuation of muscle weakness
same,number of pathological skeletal muscle fibers,OPMD mouse model,reduced number of pathological skeletal muscle fibers
